Key:
Format in all cases: functional, cell-based
MCF7 = assay: Antiproliferative activity against human MCF7 cell line
HL-60 = assay: Antiproliferative activity against human HL60 cell line
HT-29 = assay: Antiproliferative activity against human HT29 cell line
HeLa = assay: Antiproliferative activity against human HeLa cell line
MRC5 = assay: Antiproliferative activity against human MRC5 cell line
K562 = assay: Antiproliferative activity against human K562 cell line

| Compound | IC50 (MCF7) [µM] | IC50 (HL-60) [µM] | IC50 (HT-29) [µM] | IC50 (HeLa) [µM] | IC50 (MRC5) [µM] | IC50 (K562) [µM] |
| --- | --- | --- | --- | --- | --- | --- |
| NC(=O)c1csc([C@@H]2O[C@H](CO)[C@@H](O)[C@H]2O)n1 [TIAZOFURIN] | 7.98 |  |  |  |  |  |
| CCCCCCCCCCCC(=O)N[C@@H]1[C@H](O)[C@@H](CO)O[C@H]1c1nc(C(N)=O)cs1 | > 100 | 4.82 | 0.011 | 3.22 | > 100 | 35.6 |
| CCCCCC(=O)N[C@@H]1[C@H](O)[C@@H](CO)O[C@H]1c1nc(C(N)=O)cs1 | 0.014 | > 100 | > 100 | 8.75 | > 100 | > 100 |
